# In PubChem BioAssay AID2060600 (Molecular Pharmacology Branch, DTP, NCI, 2025):
# Tested on: 996289-038-R-J1-PDC complex spheroid viability
# Assay: Anticancer human tumor 996289-038-R-J1-PDC patient-derived colon adenocarcinoma cell line growth inhibition [CLK]
# Conditions: for IC50: curve of first compound; for viability, T/C: stronger effect = lower value
# In short: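 Multi-cell-type spheroids combined patient-derived tumor cells with HUVEC endothelial cells and human mesenchymal stem cells. Paired agents were dosed in half-log steps down from about clinical Cmax, or from 10 microM where Cmax was unknown.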
# [1] = second compound 0.0316 µM, first compound 0.0316 µM
# [2] = second compound 0.0316 µM, first compound 0.1 µM
# [3] = second compound 0.0316 µM, first compound 0.316 µM
# [4] = second compound 0.0316 µM, first compound 1 µM
# [5] = second compound 0.0316 µM, first compound 3.16 µM
# [6] = second compound 0.0316 µM, first compound 10 µM
# [7] = second compound 0.1 µM, first compound 0.0316 µM
# [8] = second compound 0.1 µM, first compound 0.1 µM
# [9] = second compound 0.1 µM, first compound 0.316 µM
# [10] = second compound 0.1 µM, first compound 1 µM
# [11] = second compound 0.1 µM, first compound 3.16 µM
# [12] = second compound 0.1 µM, first compound 10 µM
# [13] = second compound 0.316 µM, first compound 0.0316 µM
# [14] = second compound 0.316 µM, first compound 0.1 µM
# [15] = second compound 0.316 µM, first compound 0.316 µM
# [16] = second compound 0.316 µM, first compound 1 µM
# [17] = second compound 0.316 µM, first compound 3.16 µM
# [18] = second compound 0.316 µM, first compound 10 µM
# [19] = second compound 1 µM, first compound 0.0316 µM
# [20] = second compound 1 µM, first compound 0.1 µM
# [21] = second compound 1 µM, first compound 0.316 µM
# [22] = second compound 1 µM, first compound 1 µM
# [23] = second compound 1 µM, first compound 3.16 µM
# [24] = second compound 1 µM, first compound 10 µM
# [25] = second compound 3.16 µM, first compound 0.0316 µM
# [26] = second compound 3.16 µM, first compound 0.1 µM
# [27] = second compound 3.16 µM, first compound 0.316 µM
# [28] = second compound 3.16 µM, first compound 1 µM
# [29] = second compound 3.16 µM, first compound 3.16 µM
# [30] = second compound 3.16 µM, first compound 10 µM
# [31] = second compound 10 µM, first compound 0.0316 µM
# [32] = second compound 10 µM, first compound 0.1 µM
# [33] = second compound 10 µM, first compound 0.316 µM
# [34] = second compound 10 µM, first compound 1 µM
# [35] = second compound 10 µM, first compound 3.16 µM
# [36] = second compound 10 µM, first compound 10 µM
# 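Also: spheroids exposed to the agents for 7 days before readout.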
smiles,measurement,setting,value
COc1ccc([C@@H](O)c2cc(-c3ncnc4cc(N5CCOCC5)ccc34)c(F)cc2Cl)nn1 + CNC(=O)c1ccc(Nc2nc(OC3CCCC3)c3c(-c4ccc5nc(C)oc5c4)c[nH]c3n2)c(OC)c1,IC50,second compound 0.0316 µM,> 10000 nM
same,IC50,second compound 0.1 µM,> 10000 nM
same,IC50,second compound 0.316 µM,5720 nM
same,IC50,second compound 1 µM,2470 nM
same,IC50,second compound 3.16 µM,1410 nM
same,IC50,second compound 10 µM,1130 nM
same,"viability, T/C",[1],117%
same,"viability, T/C",[2],117%
same,"viability, T/C",[3],101%
same,"viability, T/C",[4],102%
same,"viability, T/C",[5],75.4%
same,"viability, T/C",[6],54.7%
same,"viability, T/C",[7],121%
same,"viability, T/C",[8],112%
same,"viability, T/C",[9],99.1%
same,"viability, T/C",[10],101%
same,"viability, T/C",[11],86.8%
same,"viability, T/C",[12],52.7%
same,"viability, T/C",[13],82.3%
same,"viability, T/C",[14],73.9%
same,"viability, T/C",[15],68.9%
same,"viability, T/C",[16],62.5%
same,"viability, T/C",[17],66%
same,"viability, T/C",[18],39.3%
same,"viability, T/C",[19],67.8%
same,"viability, T/C",[20],58.5%
same,"viability, T/C",[21],58.4%
same,"viability, T/C",[22],55.7%
same,"viability, T/C",[23],50.6%
same,"viability, T/C",[24],26.9%
same,"viability, T/C",[25],56.2%
same,"viability, T/C",[26],59.4%
same,"viability, T/C",[27],51.9%
same,"viability, T/C",[28],52%
same,"viability, T/C",[29],45.7%
same,"viability, T/C",[30],25.9%
same,"viability, T/C",[31],56%
same,"viability, T/C",[32],57%
same,"viability, T/C",[33],52.3%
same,"viability, T/C",[34],50.2%
same,"viability, T/C",[35],44.1%
same,"viability, T/C",[36],27.2%
COc1cccc2c1C(=O)c1c(O)c3c(c(O)c1C2=O)CC(O)(C(=O)CO)CC3OC1CC(N)C(O)C(C)O1 (centres undefined) + CNC(=O)c1ccc(Nc2nc(OC3CCCC3)c3c(-c4ccc5nc(C)oc5c4)c[nH]c3n2)c(OC)c1,IC50,second compound 0.0316 µM,4460 nM
same,IC50,second compound 0.1 µM,2150 nM
same,IC50,second compound 0.316 µM,983 nM
same,IC50,second compound 1 µM,173 nM
same,IC50,second compound 3.16 µM,< 31.6 nM
same,IC50,second compound 10 µM,66.9 nM
same,"viability, T/C",[1],119%
same,"viability, T/C",[2],98.7%
same,"viability, T/C",[3],87.5%
same,"viability, T/C",[4],68.8%
same,"viability, T/C",[5],59.9%
same,"viability, T/C",[6],36%
same,"viability, T/C",[7],104%
same,"viability, T/C",[8],110%
same,"viability, T/C",[9],79.7%
same,"viability, T/C",[10],59.9%
same,"viability, T/C",[11],50%
same,"viability, T/C",[12],28.7%
same,"viability, T/C",[13],75.3%
same,"viability, T/C",[14],73.4%
same,"viability, T/C",[15],63.1%
same,"viability, T/C",[16],51%
same,"viability, T/C",[17],31%
same,"viability, T/C",[18],18.5%
same,"viability, T/C",[19],64.8%
same,"viability, T/C",[20],56.6%
same,"viability, T/C",[21],42.2%
same,"viability, T/C",[22],28.1%
same,"viability, T/C",[23],14.3%
same,"viability, T/C",[24],10.3%
same,"viability, T/C",[25],49.3%
same,"viability, T/C",[26],48.2%
same,"viability, T/C",[27],38.5%
same,"viability, T/C",[28],19.5%
same,"viability, T/C",[29],10.3%
same,"viability, T/C",[30],7.76%
same,"viability, T/C",[31],53.1%
same,"viability, T/C",[32],47.6%
same,"viability, T/C",[33],36.6%
same,"viability, T/C",[34],18.1%
same,"viability, T/C",[35],8.69%
same,"viability, T/C",[36],7.86%
